Reference: PubChem BioAssay (NCI)
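48-hour exposure; five concentrations; linearly interpolated endpoints. GI50: concentration for 50% inhibition of growth. TGI is the concentration that stops growth completely.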

Tests used:
Assay in all cases: growth of human tumour cells (NCI), 48 h
NCI/ADR-RES ovarian = tested on: NCI/ADR-RES ovarian
OVCAR-3 ovarian = tested on: OVCAR-3 ovarian
M14 melanoma = tested on: M14 melanoma
HCT-15 colon = tested on: HCT-15 colon
SK-MEL-5 melanoma = tested on: SK-MEL-5 melanoma
786-0 renal = tested on: 786-0 renal
HCT-116 colon = tested on: HCT-116 colon
MALME-3M melanoma = tested on: MALME-3M melanoma
U251 CNS = tested on: U251 CNS
EKVX NSCLC = tested on: EKVX NSCLC
OVCAR-5 ovarian = tested on: OVCAR-5 ovarian
KM12 colon = tested on: KM12 colon
TK-10 renal = tested on: TK-10 renal
RXF 393 renal = tested on: RXF 393 renal
K-562 leukemia = tested on: K-562 leukemia
MDA-MB-231 breast = tested on: MDA-MB-231 breast
HT29 colon = tested on: HT29 colon
UO-31 renal = tested on: UO-31 renal
LOX IMVI melanoma = tested on: LOX IMVI melanoma
A549 NSCLC = tested on: A549 NSCLC
SF-268 CNS = tested on: SF-268 CNS
PC-3 prostate = tested on: PC-3 prostate
UACC-257 melanoma = tested on: UACC-257 melanoma
RPMI-8226 leukemia = tested on: RPMI-8226 leukemia
HL-60(TB) leukemia = tested on: HL-60(TB) leukemia
SK-MEL-28 melanoma = tested on: SK-MEL-28 melanoma
OVCAR-4 ovarian = tested on: OVCAR-4 ovarian
SNB-75 CNS = tested on: SNB-75 CNS
HS 578T breast = tested on: HS 578T breast
SR leukemia = tested on: SR leukemia
MDA-MB-435 = tested on: MDA-MB-435
BT-549 breast = tested on: BT-549 breast
ACHN renal = tested on: ACHN renal
HCC-2998 colon = tested on: HCC-2998 colon
SK-MEL-2 melanoma = tested on: SK-MEL-2 melanoma
CAKI-1 renal = tested on: CAKI-1 renal
NCI-H460 lung = tested on: NCI-H460 lung
NCI-H226 lung = tested on: NCI-H226 lung
HOP-62 NSCLC = tested on: HOP-62 NSCLC
CCRF-CEM leukemia = tested on: CCRF-CEM leukemia
MCF7 breast = tested on: MCF7 breast
T-47D breast = tested on: T-47D breast
A498 renal = tested on: A498 renal
HOP-92 NSCLC = tested on: HOP-92 NSCLC
NCI-H522 lung = tested on: NCI-H522 lung
COLO 205 colon = tested on: COLO 205 colon
SF-295 CNS = tested on: SF-295 CNS
IGROV1 ovarian = tested on: IGROV1 ovarian
SNB-19 CNS = tested on: SNB-19 CNS
MOLT-4 leukemia = tested on: MOLT-4 leukemia
SW-620 colon = tested on: SW-620 colon
DU-145 prostate = tested on: DU-145 prostate
SN12C renal = tested on: SN12C renal
SF-539 CNS = tested on: SF-539 CNS
UACC-62 melanoma = tested on: UACC-62 melanoma
NCI-H23 lung = tested on: NCI-H23 lung

CCOC(=O)c1c(NCC(=O)Nc2cccc([N+](=O)[O-])c2)sc(C(C)=O)c1C
GI50 (NCI/ADR-RES ovarian): 1770 nM | TGI (NCI/ADR-RES ovarian): 5390 nM | GI50 (OVCAR-3 ovarian): 2290 nM | TGI (OVCAR-3 ovarian): 5690 nM | GI50 (M14 melanoma): 1500 nM | TGI (M14 melanoma): 3280 nM | GI50 (HCT-15 colon): 845 nM | TGI (HCT-15 colon): 5350 nM | GI50 (SK-MEL-5 melanoma): 1680 nM | TGI (SK-MEL-5 melanoma): 3170 nM | GI50 (786-0 renal): 1970 nM | TGI (786-0 renal): 4210 nM | GI50 (HCT-116 colon): 1710 nM | TGI (HCT-116 colon): 5020 nM | GI50 (MALME-3M melanoma): 1510 nM | TGI (MALME-3M melanoma): 3060 nM | GI50 (U251 CNS): 2360 nM | TGI (U251 CNS): 9140 nM | GI50 (EKVX NSCLC): 2100 nM | TGI (EKVX NSCLC): 5520 nM | GI50 (OVCAR-5 ovarian): 1420 nM | TGI (OVCAR-5 ovarian): 4190 nM | GI50 (KM12 colon): 2610 nM | TGI (KM12 colon): 7990 nM | GI50 (TK-10 renal): 2100 nM | TGI (TK-10 renal): 6810 nM | GI50 (RXF 393 renal): 1210 nM | TGI (RXF 393 renal): 2510 nM | GI50 (K-562 leukemia): 1890 nM | TGI (K-562 leukemia): > 100000 nM | GI50 (MDA-MB-231 breast): 2120 nM | TGI (MDA-MB-231 breast): 4770 nM | GI50 (HT29 colon): 797 nM | TGI (HT29 colon): 3260 nM | GI50 (UO-31 renal): 1270 nM | TGI (UO-31 renal): 2620 nM | GI50 (LOX IMVI melanoma): 411 nM | TGI (LOX IMVI melanoma): 1670 nM | GI50 (A549 NSCLC): 2570 nM | TGI (A549 NSCLC): 8020 nM | GI50 (SF-268 CNS): 2110 nM | TGI (SF-268 CNS): 5160 nM | GI50 (PC-3 prostate): 794 nM | TGI (PC-3 prostate): 3630 nM | GI50 (UACC-257 melanoma): 2500 nM | TGI (UACC-257 melanoma): 7470 nM | GI50 (RPMI-8226 leukemia): 2510 nM | TGI (RPMI-8226 leukemia): 6790 nM | GI50 (HL-60(TB) leukemia): 2570 nM | TGI (HL-60(TB) leukemia): 14200 nM | GI50 (SK-MEL-28 melanoma): 1780 nM | TGI (SK-MEL-28 melanoma): 3710 nM | GI50 (OVCAR-4 ovarian): 2230 nM | TGI (OVCAR-4 ovarian): 6360 nM | GI50 (SNB-75 CNS): 2030 nM | TGI (SNB-75 CNS): 5610 nM | GI50 (HS 578T breast): 2050 nM | TGI (HS 578T breast): 5970 nM | GI50 (SR leukemia): 646 nM | TGI (SR leukemia): > 100000 nM | GI50 (MDA-MB-435): 1680 nM | TGI (MDA-MB-435): 3100 nM | GI50 (BT-549 breast): 1440 nM | TGI (BT-549 breast): 4850 nM | GI50 (ACHN renal): 1500 nM | TGI (ACHN renal): 2900 nM | GI50 (HCC-2998 colon): 1980 nM | TGI (HCC-2998 colon): 3910 nM | GI50 (SK-MEL-2 melanoma): 2010 nM | TGI (SK-MEL-2 melanoma): 4840 nM | GI50 (CAKI-1 renal): 1270 nM | TGI (CAKI-1 renal): 3650 nM | GI50 (NCI-H460 lung): 1210 nM | TGI (NCI-H460 lung): 3260 nM | GI50 (NCI-H226 lung): 1640 nM | TGI (NCI-H226 lung): 4460 nM | GI50 (HOP-62 NSCLC): 2500 nM | TGI (HOP-62 NSCLC): 6580 nM | GI50 (CCRF-CEM leukemia): 585 nM | TGI (CCRF-CEM leukemia): > 100000 nM | GI50 (MCF7 breast): 1440 nM | TGI (MCF7 breast): 5210 nM | GI50 (T-47D breast): 2310 nM | TGI (T-47D breast): 6710 nM | GI50 (A498 renal): 1700 nM | TGI (A498 renal): 3310 nM | GI50 (HOP-92 NSCLC): 1680 nM | TGI (HOP-92 NSCLC): 4560 nM | GI50 (NCI-H522 lung): 1280 nM | TGI (NCI-H522 lung): 4120 nM | GI50 (COLO 205 colon): 1650 nM | TGI (COLO 205 colon): 4600 nM | GI50 (SF-295 CNS): 2170 nM | TGI (SF-295 CNS): 5110 nM | GI50 (IGROV1 ovarian): 414 nM | TGI (IGROV1 ovarian): 1620 nM | GI50 (SNB-19 CNS): 2310 nM | TGI (SNB-19 CNS): 6500 nM | GI50 (MOLT-4 leukemia): 570 nM | TGI (MOLT-4 leukemia): > 100000 nM | GI50 (SW-620 colon): 491 nM | TGI (SW-620 colon): 7690 nM | GI50 (DU-145 prostate): 2210 nM | TGI (DU-145 prostate): 5910 nM | GI50 (SN12C renal): 1840 nM | TGI (SN12C renal): 5400 nM | GI50 (SF-539 CNS): 1820 nM | TGI (SF-539 CNS): 4480 nM | GI50 (UACC-62 melanoma): 574 nM | TGI (UACC-62 melanoma): 2140 nM | GI50 (NCI-H23 lung): 1140 nM | TGI (NCI-H23 lung): 3450 nM
